Assay results taken from ChEMBL document CHEMBL1134004, “Synthesis and in vitro cytotoxicity of novel long chain busulphan analogues” (Bioorg Med Chem Lett, 2001).

What was measured:
Format in all cases: functional, cell-based
A2780 = assay: In vitro cytotoxicity causing 50% growth inhibition was determined against […] (human ovarian cancer)cell line
Colon 26 = assay: In vitro cytotoxicity causing 50% growth inhibition was determined against C26-10 (murine colon carcinoma) cell line; conditions: Mus musculus
H322 = assay: In vitro cytotoxicity causing 50% growth inhibition was determined against H322 (human non small cell lung cancer) cells; conditions: NCI-H322
[1] = test system: Lewis lung carcinoma cell line; assay: In vitro cytotoxicity causing 50% growth inhibition was determined against LL (murine non small cell lung cancer) cell line; conditions: Mus musculus
UMSCC22B = assay: In vitro cytotoxicity causing 50% growth inhibition was determined against 22B (human head and neck squamous) cell line
WiDr = assay: In vitro cytotoxicity causing 50% growth inhibition was determined against WiDr (human colon carcinoma) cell line

CCCCCCCCCCCCCCC(CCOS(C)(=O)=O)COS(C)(=O)=O (stereo not drawn)
IC50 (A2780): 25.9 µM | IC50 (Colon 26): 26.3 µM | IC50 (H322): 25.1 µM | IC50 [1]: 20.8 µM | IC50 (UMSCC22B): 26.4 µM | IC50 (WiDr): 24.9 µM

CCCCCCCCCCCCCCC(COS(C)(=O)=O)OS(C)(=O)=O (stereo not drawn)
IC50 (A2780): 45.5 µM | IC50 (Colon 26): 31 µM | IC50 (H322): 59.7 µM | IC50 [1]: 28.4 µM | IC50 (UMSCC22B): 46.5 µM | IC50 (WiDr): 25.6 µM

CS(=O)(=O)OCCCCOS(C)(=O)=O [BUSULFAN]
IC50 (A2780): > 100 µM | IC50 (Colon 26): 92.5 µM | IC50 (H322): > 100 µM | IC50 [1]: > 100 µM | IC50 (UMSCC22B): > 100 µM | IC50 (WiDr): > 100 µM
